Measured values taken from PMC8605905 (Oxidative Medicine and Cellular Longevity, 2021).

Assays:
[1] = target: T1, ΔK280 tauRD protein (Homo sapiens, UniProt P10636, DEL597-597); experiment: Thioflavin T assay of ΔK280 tauRD aggregation; type: biochemical; details: ΔK280 tauRD 20 μM, compound 1–10 μM, 37°C 48 h; read-out: ΔK280 tauRD aggregation inhibition EC50 (Thioflavin T)
T1 construct: E. coli-derived ΔK280 tauRD protein; made in house; host or cells: E. coli
Procedure: The potential of Congo red and coumarin-chalcone derivatives in inhibiting tau misfolding was assessed using the E. coli-derived ΔK280 tauRD protein [21]. In brief, ΔK280 tauRD protein (20 μM) was incubated with the tested compound (1−10 μM) in buffer (150 mM NaCl, 20 mM Tris-HCl (pH 8.0)) at 37°C for 48 h to form aggregates. Thioflavin T (5 μM) was then added, and the mixture was incubated at room temperature for 25 min. The fluorescence intensity of the samples was measured, and the EC50 was computed as described.

[2] = target: T2, Aβ and ΔK280 tauRD aggregates (Homo sapiens, UniProt P05067+P10636, DEL597-597); experiment: TEM examination of Aβ and tau aggregates; details: 10 μM
T2 construct: To investigate Aβ and ΔK280 tauRD aggregates
Excerpt: To investigate Aβ and ΔK280 tauRD aggregates, samples of the fibrils formed with and without treatment of a tested compound were placed on a 200-mesh copper (holey-carbon) grid and visualized using a JEM-1230 transmission electron microscope (TEM) (JEOL, Tokyo, Japan) at an accelerating voltage of 100 kV.

[3] = tested on: Acetylcholinesterase (AChE); experiment: AChE activity in Aβ-GFP cells; type: cell-based; details: 5 μM, vs untreated cells
Procedure: Aβ-GFP or ∆K280 tauRD-DsRed SH-SY5Y cells were seeded into 6-well plates (5 × 10^5/well) and treated with retinoic acid, coumarin-chalcone derivatives, and doxycycline as previously described. On day 8, cells were collected and lysates were prepared with six freeze/thaw cycles. The supernatant was collected by centrifugation, followed by measurement of the caspase 1 activity in 50 μg aliquots of cell extract using the ICE fluorometric assay kit (BioVision, Milpitas, CA, USA). Following incubation of the mixture at 37°C for 2 h, fluorescence was measured with excitation/emission wavelengths at 400/505 nm (FLx800 fluorescence microplate reader). In addition, the collected cells were lysed by sonication. Acetylcholinesterase (AChE) activity in the supernatant was determined in 10 μg aliquots of cell extracts using the AChE activity assay kit (Sigma-Aldrich) according to the manufacture's protocol. Finally, the absorbance at 412 nm was measured using a Multiskan GO spectrophotometer (Thermo Fisher Scientific).

[4] = tested on: ∆K280 tauRD-DsRed SH-SY5Y cells; experiment: Real-time PCR of tauRD-DsRed RNA; type: cell-based, Human; details: 10 μM
Procedure: To measure the Aβ-GFP/tauRD-DsRed RNA expression on day 8, total RNA was extracted from collected cells and reverse-transcribed to cDNA (SuperScript III reverse transcriptase; Invitrogen, Waltham, MA, USA). Real-time quantitative PCR was performed using 100 ng of cDNA and the gene-specific TaqMan fluorogenic probe PN4331348 (EGFP) or customized Assays-by-Design probe for DsRed and 4326321E (HPRT1) (StepOnePlus Real-time PCR system, Applied Biosystems, Foster City, CA, USA). The RNA expression level was calculated using the formula 2^ΔCt, ΔCT = CT (control) − CT (target), in which CT indicates the cycle threshold.

[5] = tested on: Aβ-GFP SH-SY5Y cells; experiment: Western blot in Aβ-GFP SH-SY5Y cells; type: cell-based, Human; details: LM-021 5 μM, immunoblot
Procedure: To monitor the cAMP-mediated signal transduction pathway, CRE-GFP 293 cells in 6-well plates (1 × 10^6/well) were pretreated with kinase inhibitor H-89 (LC Laboratories, Woburn, MA, USA), KN-62 (Cayman Chemical, Ann Arbor, MI, USA), U0126 (LC Laboratories), or wortmannin (LC Laboratories) (10 μM) for 4 h before forskolin or LM-021 (10 μM) addition for 5 h. GFP fluorescence/protein and total/phosphorylated PKA, CaMKII, ERK, PI3K, and CREB levels were examined. In addition, Aβ-GFP or ∆K280 tauRD-DsRed SH-SY5Y cells were treated with retinoic acid (10 μM) on day 1, followed by the addition of LM-021 (5 or 10 μM) and doxycycline (5 or 2 μg/ml) on day 2, as described. Kinase inhibitors (10 μM) were added on day 6. On day 8, the cells were collected for protein expression analysis of BDNF, BCL2 (BCL2 apoptosis regulator), and BAX (BCL2 associated X, apoptosis regulator), and total/phosphorylated PKA, CaMKII, ERK, PI3K, and CREB. Also, cells were stained with DAPI and assessed for neurite outgrowth as described above.
Total proteins from CRE-GFP 293 and Aβ-GFP, ∆K280 tauRD-DsRed SH-SY5Y cells were extracted using lysis buffer (50 mM Tris-HCl (pH 8.0), 150 mM NaCl, 1 mM EDTA (pH 8.0), 1 mM EGTA (pH 8.0), 0.1% SDS, 0.5% sodium deoxycholate, 1% Triton X-100) containing phosphatase and protease inhibitor cocktails (Sigma-Aldrich). Protein concentrations were measured using a protein assay kit (Bio-Rad, Hercules, CA, USA), and 20 μg of proteins was separated with 10% SDS-PAGE and blotted onto polyvinylidene difluoride (PVDF) membranes (Sigma-Aldrich). After blocking, the membrane blot was incubated with primary antibody against GFP (1 : 500; Santa Cruz Biotechnology, Santa Cruz, CA, USA), PKA (1 : 1000; R&D Systems, Minneapolis, MN, USA), p-PKA (T197) (1 : 1000; Cell Signaling, Danvers, MA, USA), ERK (1 : 500; Cell Signaling), p-ERK (T202/Y204) (1 : 500; Cell Signaling), CaMKII (1 : 1000; Santa Cruz Biotechnology), p-CaMKII (T286) (1 : 1000; Cell Signaling), CREB (1 : 1000; Santa Cruz Biotechnology), p-CREB (S133) (1 : 1000; Millipore, Billerica, MA, USA), BDNF (1 : 500; Santa Cruz Biotechnology), BCL2 (1 : 500; BioVision), BAX (1 : 500; BioVision), GAPDH (glyceraldehyde-3-phosphate dehydrogenase, as a loading control) (1 : 1000; MDBio, Taipei, Taiwan), or β-tubulin (1 : 1000, Sigma-Aldrich, as a loading control). The immune complexes were visualized using horseradish peroxidase-conjugated goat anti-mouse or goat anti-rabbit IgG antibody (1 : 5000, GeneTex, Irvine, CA, USA) and a chemiluminescent substrate (Millipore).

T1 sequence (P10636 with tags, fused parts or gaps DEL597-597): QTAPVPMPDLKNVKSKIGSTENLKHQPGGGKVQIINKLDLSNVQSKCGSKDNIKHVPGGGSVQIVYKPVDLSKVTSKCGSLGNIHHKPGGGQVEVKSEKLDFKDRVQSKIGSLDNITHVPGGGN

CN(C)c1ccc(/C=C/C(=O)c2c(O)c3ccccc3oc2=O)cc1 [LM-021, (E)-3-(3-(4-(dimethylamino)phenyl)acryloyl)-4-hydroxy-2H-chromen-2-one]
EC50 [1]: 10 µM
Aβ and tau aggregate structures by TEM [2]: reduced amyloid aggregates
AChE activity [3]: reduced
∆K280 tauRD-DsRed RNA level [4]: did not significantly alter
BAX protein levels [5]: reduced
PKA and ERK protein levels [5]: rescued the reduction in PKA and ERK, although not significantly
p-CREB, CREB, pro-BDNF, m-BDNF, and BCL2 protein levels [5]: significantly increased
p-PKA, p-CaMKII, and p-ERK protein levels [5]: significantly upregulated
